Measured values from patent US7074789B2, “Kinase inhibitors” (Amgen Inc., priority 1999, dated 2006).

Columns and labels:
Type in all cases: biochemical
Lck = target: T1, Lck (Homo sapiens, UniProt P06239); experiment: Kinase inhibition assay (33P transfer), Lck; conditions: read-out: Lck-1
T1 construct: Kinases are expressed as either kinase domains or full length constructs; made in house
How it was run: (§1)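 Kinase domains or full-length kinases, GST- or His-tagged and expressed in E. coli or baculovirus/High Five cells, transferred 33PO4 from ATP onto plate-bound poly(Glu,Tyr) 4:1 or poly(Arg,Ser) 3:1. After incubation, plates were washed with 0.5% phosphoric acid and counted by liquid scintillation.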

Zap-70 = target: T2, Zap-70 (Homo sapiens, UniProt P43403); experiment: Kinase inhibition assay (33P transfer), Zap-70; conditions: read-out: Zap-1
T2 construct: Kinases are expressed as either kinase domains or full length constructs; made in house
T2 sequence (P43403 1-619): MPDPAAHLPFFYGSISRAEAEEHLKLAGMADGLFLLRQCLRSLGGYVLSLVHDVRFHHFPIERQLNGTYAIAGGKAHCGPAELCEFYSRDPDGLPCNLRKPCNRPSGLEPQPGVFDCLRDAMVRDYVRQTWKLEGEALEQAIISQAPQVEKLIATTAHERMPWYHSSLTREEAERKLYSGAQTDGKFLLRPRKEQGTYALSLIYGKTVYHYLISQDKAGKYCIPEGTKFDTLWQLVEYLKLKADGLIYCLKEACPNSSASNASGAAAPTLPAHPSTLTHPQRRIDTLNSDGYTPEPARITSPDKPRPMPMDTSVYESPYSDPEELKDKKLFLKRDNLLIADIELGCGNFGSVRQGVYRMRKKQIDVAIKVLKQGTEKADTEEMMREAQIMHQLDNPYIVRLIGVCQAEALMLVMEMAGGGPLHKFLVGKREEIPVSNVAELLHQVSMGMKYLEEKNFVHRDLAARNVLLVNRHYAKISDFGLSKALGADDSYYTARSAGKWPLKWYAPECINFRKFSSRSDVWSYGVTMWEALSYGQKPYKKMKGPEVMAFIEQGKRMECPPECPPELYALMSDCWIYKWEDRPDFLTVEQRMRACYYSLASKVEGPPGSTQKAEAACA
How it was run: as §1

Itk = target: T3, Itk (Homo sapiens, UniProt Q08881); experiment: Kinase inhibition assay (33P transfer), Itk; conditions: read-out: Itk-1
T3 construct: Kinases are expressed as either kinase domains or full length constructs; made in house
T3 sequence (Q08881 1-620): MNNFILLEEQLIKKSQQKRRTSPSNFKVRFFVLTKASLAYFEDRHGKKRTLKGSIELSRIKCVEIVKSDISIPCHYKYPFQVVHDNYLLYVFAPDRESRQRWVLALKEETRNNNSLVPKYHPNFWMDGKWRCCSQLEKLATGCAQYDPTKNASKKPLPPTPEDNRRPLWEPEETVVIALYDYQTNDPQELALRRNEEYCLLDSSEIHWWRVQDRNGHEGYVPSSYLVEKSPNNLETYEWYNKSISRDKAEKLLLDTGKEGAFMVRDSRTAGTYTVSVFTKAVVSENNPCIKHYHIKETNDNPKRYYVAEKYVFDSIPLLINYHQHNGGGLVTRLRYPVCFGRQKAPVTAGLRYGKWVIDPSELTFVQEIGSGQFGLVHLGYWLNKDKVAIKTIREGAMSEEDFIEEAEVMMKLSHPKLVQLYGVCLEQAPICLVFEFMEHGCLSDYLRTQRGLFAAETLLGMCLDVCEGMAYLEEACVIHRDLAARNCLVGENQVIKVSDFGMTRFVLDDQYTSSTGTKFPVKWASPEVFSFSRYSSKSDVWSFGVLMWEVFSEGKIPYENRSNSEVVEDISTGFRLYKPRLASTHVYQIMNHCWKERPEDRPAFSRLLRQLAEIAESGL
How it was run: (§2)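 Using immobilised substrate copolymers (poly(Glu,Tyr) 4:1; poly(Arg,Ser) 3:1) and [33P]ATP, purified fusion kinases were allowed to react; plates were then rinsed in 0.5% phosphoric acid and counted in a scintillation detector. Half-maximal inhibition of label transfer defines IC50.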

EGFR = target: T4, EGFR (Homo sapiens, UniProt P00533); experiment: Kinase inhibition assay (33P transfer), EGFR; conditions: Table 2, kinase inhibition class; read-out: EGFR-1
T4 construct: Kinases are expressed as either kinase domains or full length constructs; made in house
How it was run: as §2

ErbB2 = target: T5, ErbB2 (Homo sapiens, UniProt P04626); experiment: Kinase inhibition assay (33P transfer), ErbB2; conditions: read-out: ErbB2-2
T5 construct: Kinases are expressed as either kinase domains or full length constructs; made in house
Excerpt: The inhibitor compounds described herein are screened in the following manner. Kinases suitable for use in the following protocol to determine kinase activity of the compounds described herein include, -but are not limited to: Lck, Lyn, Src, Fyn, Syk, Zap-70, Itk, Tec, Btk, EGFR, ErbB2, Kdr, Flt-1, Flt-3, Tek, c-Met, InsR, and AKT.
Kinases are expressed as either kinase domains or full length constructs fused to glutathione S-transferase (GST) or polyHistidine tagged fusion proteins in either E. colior Baculovirus-High Five expression systems. They are purified to near homogeneity by affinity chromatography essentially as previously described (Lehr et al., 1996; Gish et al., 1995). In some instances, kinases are co-expressed or mixed with purified or partially purified regulatory polypeptides prior to measurement of activity.
Kinase activity and inhibition are measured essentially by established protocols (Braunwalder et al., 1996). Briefly, The transfer of ^33PO4 from ATP to the synthetic substrates poly(Glu, Tyr) 4:1 or poly(Arg, Ser) 3:1 attached to the bioactive surface of microtiter plates serves as the basis to evaluate enzyme activity. After an incubation period, the amount of phosphate transferred is measured by first washing the plate with 0.5% phosphoric acid, adding liquid scintillant, and then counting in a liquid scintillation detector. The IC50 is determined by the concentration of compound that causes a 50% reduction in the amount of […] incorporated onto the substrate bound to the plate.

Kdr = target: T6, Kdr (Homo sapiens, UniProt P35968); experiment: Kinase inhibition assay (33P transfer), Kdr; conditions: read-out: KDR-1
T6 construct: Kinases are expressed as either kinase domains or full length constructs; made in house
T6 sequence (P35968 20-1356, species assumed): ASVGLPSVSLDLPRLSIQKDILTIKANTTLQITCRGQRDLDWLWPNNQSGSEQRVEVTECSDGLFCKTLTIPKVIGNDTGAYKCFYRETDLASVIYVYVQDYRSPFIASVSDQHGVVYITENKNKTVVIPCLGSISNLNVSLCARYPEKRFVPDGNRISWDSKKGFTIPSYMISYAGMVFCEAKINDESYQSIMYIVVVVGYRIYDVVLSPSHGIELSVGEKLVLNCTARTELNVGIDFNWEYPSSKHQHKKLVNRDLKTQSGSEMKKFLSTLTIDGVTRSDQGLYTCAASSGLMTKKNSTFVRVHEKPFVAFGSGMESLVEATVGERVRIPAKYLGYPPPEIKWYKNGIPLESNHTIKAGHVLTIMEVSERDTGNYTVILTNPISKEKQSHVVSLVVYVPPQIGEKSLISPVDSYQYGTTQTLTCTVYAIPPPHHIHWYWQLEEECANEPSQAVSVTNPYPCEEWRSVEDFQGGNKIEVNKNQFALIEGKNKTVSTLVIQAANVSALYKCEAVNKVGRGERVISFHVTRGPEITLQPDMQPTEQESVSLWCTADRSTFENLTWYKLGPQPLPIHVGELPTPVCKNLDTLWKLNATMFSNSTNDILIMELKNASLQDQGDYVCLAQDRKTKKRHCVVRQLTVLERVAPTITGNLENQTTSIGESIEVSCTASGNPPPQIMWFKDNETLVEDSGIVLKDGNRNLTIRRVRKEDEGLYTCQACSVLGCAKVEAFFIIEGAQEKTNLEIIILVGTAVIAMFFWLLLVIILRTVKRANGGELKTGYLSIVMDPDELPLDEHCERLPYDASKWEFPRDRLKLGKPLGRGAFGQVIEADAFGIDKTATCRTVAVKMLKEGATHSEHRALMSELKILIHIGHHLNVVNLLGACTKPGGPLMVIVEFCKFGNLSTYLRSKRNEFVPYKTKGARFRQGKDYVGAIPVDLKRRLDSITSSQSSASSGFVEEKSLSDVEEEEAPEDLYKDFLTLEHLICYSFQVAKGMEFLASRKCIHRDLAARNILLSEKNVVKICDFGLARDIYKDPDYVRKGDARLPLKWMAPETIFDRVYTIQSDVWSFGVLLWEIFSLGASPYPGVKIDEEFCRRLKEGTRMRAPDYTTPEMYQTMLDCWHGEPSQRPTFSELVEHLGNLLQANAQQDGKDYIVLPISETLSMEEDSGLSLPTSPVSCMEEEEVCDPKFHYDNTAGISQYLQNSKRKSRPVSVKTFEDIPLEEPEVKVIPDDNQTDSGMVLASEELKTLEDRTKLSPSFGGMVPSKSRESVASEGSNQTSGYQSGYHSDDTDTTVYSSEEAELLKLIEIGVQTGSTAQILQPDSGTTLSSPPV
How it was run: as §1

c-Met = target: T7, c-Met (Homo sapiens, UniProt P08581); experiment: Kinase inhibition assay (33P transfer), c-Met; conditions: Table 2, kinase inhibition class; read-out: Met-1
T7 construct: Kinases are expressed as either kinase domains or full length constructs; made in house
How it was run: as §2

AKT = target: T8, AKT (Homo sapiens, UniProt Q9Y243); experiment: Kinase inhibition assay (33P transfer), AKT; conditions: Table 2, kinase inhibition class; read-out: AKT3-1
T8 construct: Kinases are expressed as either kinase domains or full length constructs; made in house
T8 sequence (Q9Y243 whole entry, the tested form may be a part): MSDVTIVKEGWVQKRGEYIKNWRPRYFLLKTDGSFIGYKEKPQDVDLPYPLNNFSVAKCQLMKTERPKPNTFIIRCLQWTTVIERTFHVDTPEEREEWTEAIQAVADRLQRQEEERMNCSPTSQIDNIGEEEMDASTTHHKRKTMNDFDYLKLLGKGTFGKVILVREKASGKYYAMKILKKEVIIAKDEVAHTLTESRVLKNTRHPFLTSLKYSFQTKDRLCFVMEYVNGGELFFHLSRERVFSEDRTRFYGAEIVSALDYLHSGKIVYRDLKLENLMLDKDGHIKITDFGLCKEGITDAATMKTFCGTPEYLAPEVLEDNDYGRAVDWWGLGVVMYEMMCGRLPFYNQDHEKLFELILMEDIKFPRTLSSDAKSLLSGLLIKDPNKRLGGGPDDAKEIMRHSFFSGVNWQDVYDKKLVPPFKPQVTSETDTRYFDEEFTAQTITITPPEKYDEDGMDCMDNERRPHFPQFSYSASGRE
How it was run: as §1

IGFR-1 = target: T9, IGFR-1 (Homo sapiens, UniProt P08069); experiment: Kinase inhibition assay, IGFR-1 (Table 2); conditions: Table 2, kinase inhibition class
T9 construct: Kinases are expressed as either kinase domains or full length constructs; made in house
T9 sequence (P08069 31-1367): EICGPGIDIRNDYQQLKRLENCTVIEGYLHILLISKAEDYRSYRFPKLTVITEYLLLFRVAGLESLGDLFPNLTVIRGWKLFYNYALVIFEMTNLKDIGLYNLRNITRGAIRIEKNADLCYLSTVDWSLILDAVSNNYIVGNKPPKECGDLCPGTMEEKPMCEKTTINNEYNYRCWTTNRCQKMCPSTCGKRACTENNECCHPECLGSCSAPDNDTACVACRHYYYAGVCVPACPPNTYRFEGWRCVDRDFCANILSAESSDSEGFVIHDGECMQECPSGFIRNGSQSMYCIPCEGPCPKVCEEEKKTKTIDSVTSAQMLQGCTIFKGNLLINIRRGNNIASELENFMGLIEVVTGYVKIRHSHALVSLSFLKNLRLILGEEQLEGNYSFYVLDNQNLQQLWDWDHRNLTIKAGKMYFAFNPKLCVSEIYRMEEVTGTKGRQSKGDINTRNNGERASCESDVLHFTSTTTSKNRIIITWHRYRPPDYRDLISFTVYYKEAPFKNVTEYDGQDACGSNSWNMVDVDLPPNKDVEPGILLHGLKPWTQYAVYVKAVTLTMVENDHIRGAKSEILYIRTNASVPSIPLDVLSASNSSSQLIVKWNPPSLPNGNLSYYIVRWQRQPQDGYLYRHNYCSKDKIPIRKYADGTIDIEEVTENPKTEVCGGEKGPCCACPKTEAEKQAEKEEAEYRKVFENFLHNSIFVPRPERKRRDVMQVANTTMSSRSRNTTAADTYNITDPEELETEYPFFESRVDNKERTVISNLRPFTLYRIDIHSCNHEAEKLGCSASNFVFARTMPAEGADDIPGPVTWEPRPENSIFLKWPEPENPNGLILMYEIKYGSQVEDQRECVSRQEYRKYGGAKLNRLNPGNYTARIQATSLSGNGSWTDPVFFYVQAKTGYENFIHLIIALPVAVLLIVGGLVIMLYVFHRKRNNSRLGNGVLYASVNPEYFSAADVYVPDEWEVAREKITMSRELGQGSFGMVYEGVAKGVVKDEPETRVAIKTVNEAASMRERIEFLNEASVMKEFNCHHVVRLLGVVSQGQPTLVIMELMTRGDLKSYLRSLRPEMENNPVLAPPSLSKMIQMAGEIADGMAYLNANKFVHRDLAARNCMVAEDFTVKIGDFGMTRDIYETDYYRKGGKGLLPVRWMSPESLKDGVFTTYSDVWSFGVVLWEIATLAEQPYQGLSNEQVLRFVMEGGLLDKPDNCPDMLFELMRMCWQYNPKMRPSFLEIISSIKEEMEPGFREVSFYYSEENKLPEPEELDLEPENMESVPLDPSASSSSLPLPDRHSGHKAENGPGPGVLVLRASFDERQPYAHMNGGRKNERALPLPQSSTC

PDGFRB = target: T10, PDGFRB (Homo sapiens, UniProt P09619); experiment: Kinase inhibition assay (33P transfer), PDGFRB; conditions: read-out: PDGFRB-1
T10 construct: Kinases are expressed as either kinase domains or full length constructs; made in house
T10 sequence (P09619 33-1106, species assumed): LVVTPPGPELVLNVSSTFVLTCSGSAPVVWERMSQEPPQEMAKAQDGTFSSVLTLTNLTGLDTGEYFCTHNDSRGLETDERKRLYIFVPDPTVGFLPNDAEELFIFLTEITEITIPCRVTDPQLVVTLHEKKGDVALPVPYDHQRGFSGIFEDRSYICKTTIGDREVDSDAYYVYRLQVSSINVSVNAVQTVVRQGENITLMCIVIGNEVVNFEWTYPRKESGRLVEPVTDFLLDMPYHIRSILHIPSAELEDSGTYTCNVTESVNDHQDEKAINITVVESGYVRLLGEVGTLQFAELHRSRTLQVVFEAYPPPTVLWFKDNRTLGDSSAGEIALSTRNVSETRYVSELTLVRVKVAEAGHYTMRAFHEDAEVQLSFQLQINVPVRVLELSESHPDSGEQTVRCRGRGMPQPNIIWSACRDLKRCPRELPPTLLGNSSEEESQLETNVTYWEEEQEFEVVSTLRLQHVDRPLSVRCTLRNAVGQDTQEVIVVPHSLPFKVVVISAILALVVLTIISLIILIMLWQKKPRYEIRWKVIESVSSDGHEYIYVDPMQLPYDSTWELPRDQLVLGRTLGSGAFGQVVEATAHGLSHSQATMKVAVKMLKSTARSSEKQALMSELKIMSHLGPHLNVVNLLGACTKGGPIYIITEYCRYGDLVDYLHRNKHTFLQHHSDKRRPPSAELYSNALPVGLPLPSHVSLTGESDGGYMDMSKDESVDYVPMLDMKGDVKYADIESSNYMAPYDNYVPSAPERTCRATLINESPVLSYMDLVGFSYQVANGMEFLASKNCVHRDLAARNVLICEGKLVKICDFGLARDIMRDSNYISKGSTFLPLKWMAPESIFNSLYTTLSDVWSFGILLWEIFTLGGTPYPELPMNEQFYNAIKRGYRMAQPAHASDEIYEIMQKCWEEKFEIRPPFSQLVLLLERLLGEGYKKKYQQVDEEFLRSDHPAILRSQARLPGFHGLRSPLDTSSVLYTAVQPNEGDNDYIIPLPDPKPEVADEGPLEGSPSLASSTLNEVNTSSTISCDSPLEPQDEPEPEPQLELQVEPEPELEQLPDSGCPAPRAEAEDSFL

T1 sequence (P06239 whole entry, species assumed, the tested form may be a part): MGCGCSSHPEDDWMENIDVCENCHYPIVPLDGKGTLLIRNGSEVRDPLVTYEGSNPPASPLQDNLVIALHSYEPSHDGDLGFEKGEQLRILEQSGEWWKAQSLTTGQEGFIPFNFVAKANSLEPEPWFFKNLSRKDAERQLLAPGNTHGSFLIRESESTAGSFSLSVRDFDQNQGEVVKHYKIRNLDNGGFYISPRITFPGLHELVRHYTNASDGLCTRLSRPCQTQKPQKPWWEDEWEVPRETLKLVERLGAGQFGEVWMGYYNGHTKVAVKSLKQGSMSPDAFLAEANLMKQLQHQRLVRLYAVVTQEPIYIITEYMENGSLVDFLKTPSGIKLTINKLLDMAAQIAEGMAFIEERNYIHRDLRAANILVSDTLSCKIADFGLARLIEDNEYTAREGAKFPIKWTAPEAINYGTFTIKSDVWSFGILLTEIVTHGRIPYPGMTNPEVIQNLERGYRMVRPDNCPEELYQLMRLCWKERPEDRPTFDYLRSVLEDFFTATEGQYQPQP

SMILES | IC50 (Lck) [µM] | IC50 (Zap-70) [µM] | IC50 (Itk) [µM] | IC50 (EGFR) [µM] | IC50 (ErbB2) [µM] | IC50 (Kdr) [µM] | IC50 (c-Met) [µM] | IC50 (AKT) [µM] | IC50 (IGFR-1) [µM] | IC50 (PDGFRB) [µM]
COc1cc(Nc2ncnc(Oc3ccc(OCc4ccccc4)cc3)n2)cc(OC)c1OC [Compound 530] | > 9.77 | > 9.77 | > 9.77 | > 9.77 | > 9.77 | > 9.77 | > 9.77 | > 9.77 | > 9.77 | > 9.77
COc1cc(Nc2ncnc(-n3c(Nc4cccc(F)c4)nc4ccccc43)n2)cc(OC)c1OC [Compound 1053] | 0.821 to 4.92 | > 9.23 | > 9.23 | 4.92 to 7.18 | > 9.23 | < 0.821 | > 9.23 | > 9.23 | > 9.23 | < 0.821
NC(=O)Cc1ccc(Nc2ncnc(Nc3cc(-c4ccccc4)n[nH]3)n2)cc1 [Compound 573] | < 1.04 | 6.21 to 9.06 | 1.04 to 6.21 | 1.04 to 6.21 | 6.21 to 9.06 | < 1.04 | 1.04 to 6.21 | 6.21 to 9.06 | < 1.04 | 1.04 to 6.21
CCN(c1ccc(C)cc1)c1ncnc(Nc2cc(OC)c(OC)c(OC)c2)n1 [Compound 538] | 1.01 to 6.07 | > 11.4 | 8.85 to 11.4 | < 1.01 | 1.01 to 6.07 | < 1.01 | < 1.01 | > 11.4 | < 1.01 | 1.01 to 6.07
COc1cc(Nc2ncnc(-n3c(NC4CCCc5ccccc54)nc4ccccc43)n2)cc(OC)c1OC (centres unmarked) [Compound 1043] | 4.58 to 6.68 | > 8.59 | > 8.59 | 6.68 to 8.59 | 0.764 to 4.58 | 0.764 to 4.58 | > 8.59 | > 8.59 | 6.68 to 8.59 | 4.58 to 6.68
COc1cc(Nc2ncnc(Nc3ccc4nn(C)cc4c3)n2)cc(OC)c1OC [Compound 556] | < 0.982 | > 11 | 0.982 to 5.89 | 0.982 to 5.89 | < 0.982 | 0.982 to 5.89 | > 11 | > 11 | < 0.982 | < 0.982
Cc1ccc(Nc2ncnc(Nc3cccc(CC(=O)O)c3)n2)cc1O [Compound 543] | 6.83 to 9.96 | > 12.8 | > 12.8 | < 1.14 | 1.14 to 6.83 | < 1.14 | > 12.8 | > 12.8 | > 12.8 | 1.14 to 6.83
COc1cc(Nc2ncnc(Nc3cccc(CN4CCN(C)CC4)c3)n2)cc(OC)c1OC [Compound 1047] | > 9.67 | > 9.67 | > 9.67 | > 9.67 | > 9.67 | > 9.67 | > 9.67 | > 9.67 | > 9.67 | > 9.67
CN(c1cccc(Cl)c1)c1ncnc(NC2CCN(Cc3ccccc3)CC2)n1 [Compound 752] | > 11 | > 11 | > 11 | 0.978 to 5.87 | > 11 | > 11 | > 11 | > 11 | > 11 | > 11
COc1cc(Nc2ncnc(-c3cccnc3Nc3cccc(C(N)=O)c3)n2)cc(OC)c1OC [Compound 1090] | < 0.845 | > 9.5 | > 9.5 | > 9.5 | > 9.5 | < 0.845 | 7.39 to 9.5 | > 9.5 | 7.39 to 9.5 | < 0.845
COc1ccc(Nc2nc3ccccc3n2-c2ncnc(Nc3cc(OC)c(OC)c(OC)c3)n2)c(C)c1 [Compound 558] | 4.67 to 6.82 | 4.67 to 6.82 | > 8.76 | > 8.76 | 6.82 to 8.76 | < 0.779 | 4.67 to 6.82 | > 8.76 | > 8.76 | 0.779 to 4.67
COc1cccc(Nc2ncnc(Nc3cc(-c4ccccc4)n[nH]3)n2)c1 [Compound 1011] | 1.11 to 6.68 | > 12.5 | 1.11 to 6.68 | 1.11 to 6.68 | 1.11 to 6.68 | 1.11 to 6.68 | 1.11 to 6.68 | 1.11 to 6.68 | < 1.11 | 1.11 to 6.68
COC(=O)c1ccc(-c2cc(Nc3ncnc(Nc4ccc(CO)cc4)n3)[nH]n2)cc1 [Compound 989] | > 10.8 | > 10.8 | 8.38 to 10.8 | 0.958 to 5.75 | > 10.8 | 8.38 to 10.8 | 8.38 to 10.8 | > 10.8 | 8.38 to 10.8 | > 10.8
CN1CCN(Cc2cccc(Nc3ncnc(Nc4ccc5c(cnn5Cc5ccccc5)c4)n3)c2)CC1 [Compound 552] | > 8.9 | > 8.9 | > 8.9 | > 8.9 | > 8.9 | > 8.9 | > 8.9 | > 8.9 | > 8.9 | > 8.9
CN(c1cccc(Cl)c1)c1ncnc(Nc2ccccc2)n1 [Compound 748] | 1.28 to 7.7 | > 14.4 | > 14.4 | < 1.28 | 1.28 to 7.7 | 7.7 to 11.2 | 1.28 to 7.7 | > 14.4 | 7.7 to 11.2 | 1.28 to 7.7
COc1ccc(N(C)c2ncnc(-n3c(N)nc4ccccc43)n2)cc1 [Compound 663] | > 13 | > 13 | > 13 | > 13 | > 13 | 6.91 to 10.1 | > 13 | > 13 | > 13 | > 13
COc1cc(Nc2ncnc(-n3c(NCc4ccc(OC(F)(F)F)cc4)nc4ccccc43)n2)cc(OC)c1OC [Compound 571] | > 7.93 | > 7.93 | > 7.93 | > 7.93 | 4.23 to 6.17 | > 7.93 | 6.17 to 7.93 | > 7.93 | > 7.93 | > 7.93
